Here are results for 19 compounds from patent publication EP4793271A1, “NEUROPROTECTIVE AGENT” (National Center of Neurology and Psychiatry, priority 2023, dated 2025).

Test [1] concerns the target T1, nicotinamide phosphoribosyl transferase (NAMPT) (Homo sapiens, UniProt P43490).
T1 construct: purchased Medical & Biological Laboratories Co., Ltd. (MBL)
In words: NAMPT activity measurement (NMN fluorescence detection). It counts as biochemical. The following applies: NAMPT recombinant protein; 10 µM Nam. The protocol: The compound of the present invention was evaluated for the ability to influence the activity of nicotinamide phosphoribosyl transferase (NAMPT) which is an enzyme that metabolizes nicotinamide (Nam), not the target SARM1.
The enzymatic reaction of NAMPT was carried out by adding NAMPT recombinant protein (manufactured by Medical & Biological Laboratories Co., Ltd. (MBL)) to a reaction solution containing the substrate Nam, phosphoribosylpyrophosphate (PRPP), ATP, and the like (composition: […] (pH = 7.4), 2 µM ATP, 0.5 µM PRPP, 0.02% BSA, 2 µM DTT, 1.2 µM MgCl2, and 10 µM Nam). The amount of the reaction product NMN was detected by detecting the fluorescent signal of a fluorescent substance obtained through the reaction of 2-acetylbenzofuran with NMN using SpectraMax M2 (Molecular Devices) (excitation: 421 nm, fluorescence: 480 nm) (Moriya et al, Chemical Communications 2013, 49 11500). The test compound was added at final concentrations of 10 µM, 3 µM, 1 µM, 300 nM, 100 nM, 30 nM, 10 nM, and 3 nM to the NMN synthesis reaction system described above. The NMN-derived fluorescent signal was normalized against a control group and plotted as the function of the test compound concentrations, and the compound was evaluated for its NAMPT inhibitory effect by calculating IC50.
The IC50 value was evaluated as ∘ for ≥1 µM and as Δ for ≥0.1 µM.

Test [2] deals with primary cultured cells of mouse fetus-derived dorsal root ganglia (DRGs). Briefly: Suppression of axonal degeneration after axotomy in DRG explant culture. Type of test: cell-based. The following applies: minimum concentration at which axonal degeneration was suppressed (DI 0.3 or less), 24 hours after axotomy; for minimal effective concentration: Mus musculus, read-out: Evaluation on protection against degeneration. The protocol: The compound of the present invention was studied for its protective effect against axonal injury using primary cultured cells of mouse fetus-derived dorsal root ganglia (DRGs).
DRGs were collected from a fetus derived from an ICR mouse (13.5 days of pregnancy). DRGs were cultured using a plate coated by incubation with 0.1 mg/mL poly-L-lysine at 4°C for 24 hours or longer, washing with PBS, and then incubation with 2.5 µg/mL Cultrex Mouse Laminin I at 37°C for 4 to 6 hours.
One of DRGs collected was plated to each well of the coated 24-well plate. The DRG was cultured in a nicotinamide-free medium for neuron (supplemented with 10% FBS, 1 mM glutamine, 50 ng/mL NGF2.5S, and penicillin-streptomycin) for 24 hours at maximum from the start of culture and then cultured in a nicotinamide-free medium for neuron (supplemented with 2% MACS NeuroBrew-21, 50 ng/mL NGF2.5S, 1% Glutamax, 20 µM uridine, 20 µM 5-fluoro-2'-deoxyuridine, and penicillin-streptomycin) for 7 to 8 days.
The nicotinamide-free medium for neuron was prepared so as to have the same constituents as those of the composition published in a previously reported paper (Brewer et al., J. Neuroscience Research 35: 567-576) except for nicotinamide with reference to this composition.
The test compound is dissolved in DMSO and added to cells such that the final concentration of DMSO is 0.1% (1000-fold dilution). 10 mM, 1 mM, 100 µM, 10 µM, 1 µM, and 100 nM samples of the test compound are prepared and added at a 1000-fold dilution to cells.
Axotomy was carried out by scooping out a cell body portion of the cultured DRG with a chip for a micropipette. The test compound was added at the following concentrations (final concentration: 10 µM, 1 µM, 100 nM, 10 nM, 1 nM, and 100 pM) within 30 minutes after axotomy. The compound was evaluated for its protective effect against axonal degeneration by imaging (Leica DMIL microscope, 20× objective lens) the state of neurites 24 hours after axotomy and evaluating the degree of degeneration. The degree of degeneration was quantified using a program uniquely developed using the R language. A degeneration index (DI) was used as an indicator for the degree of degeneration, and the ratio of the area of a fragmented axon to the total area of axons was calculated as defined in the equation of Expression 2. Suppressed axonal degeneration was evaluated when the value of DI was 0.3 or less. The minimum concentration at which axonal degeneration was suppressed was determined for each compound. Degeneratioin index (DI) = (Degenerated axons)/(All axons) [formula]
The axonal protective activity was evaluated as A ≤ 0.01 µM, 0.01 µM < B ≤ 0.1 µM, and 0.1 µM < C ≤ 1 µM depending on the minimum concentration at which axonal degeneration was suppressed.

In a further test the target is T2, hSARM1 (Homo sapiens, UniProt Q6SZW1).
T2 sequence (Q6SZW1 28-724): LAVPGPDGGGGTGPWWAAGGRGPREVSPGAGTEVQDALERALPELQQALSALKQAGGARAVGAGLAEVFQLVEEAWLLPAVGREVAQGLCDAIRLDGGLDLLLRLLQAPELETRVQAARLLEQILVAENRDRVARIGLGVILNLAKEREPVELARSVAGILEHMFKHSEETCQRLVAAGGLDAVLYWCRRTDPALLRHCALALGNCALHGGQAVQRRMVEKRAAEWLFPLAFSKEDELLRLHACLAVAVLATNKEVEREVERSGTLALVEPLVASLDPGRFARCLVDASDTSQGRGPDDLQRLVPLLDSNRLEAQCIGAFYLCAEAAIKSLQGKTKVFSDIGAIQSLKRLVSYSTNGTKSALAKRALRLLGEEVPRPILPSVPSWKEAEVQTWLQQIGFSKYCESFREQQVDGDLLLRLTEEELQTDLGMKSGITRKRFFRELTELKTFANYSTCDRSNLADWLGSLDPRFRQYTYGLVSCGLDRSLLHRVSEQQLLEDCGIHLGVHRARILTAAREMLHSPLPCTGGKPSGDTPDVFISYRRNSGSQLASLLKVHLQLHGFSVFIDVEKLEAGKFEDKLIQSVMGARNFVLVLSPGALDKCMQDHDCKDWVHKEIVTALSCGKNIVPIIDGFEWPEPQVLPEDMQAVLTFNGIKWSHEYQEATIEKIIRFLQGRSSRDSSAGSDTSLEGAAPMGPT
In words: Human SARM1 activity measurement in HEK293 cells transiently transfected with ΔN-hSARM1 (PC6 fluorescent probe). On the set-up: expressed in transfected cells; host or cells: HEK293, pcDNA3 expression vector. Type of test: cell-based. The conditions noted are these: inhibition rate; compound 30 µM; PC6 50 µM; HEK293 cells expressing ΔN-hSARM1; approximately 48 hours from transfection; read-out: Evaluation on hSARM1 inhibitory. The protocol:
HEK293 cells cultured in a prepared medium of nicotinamide-free DMEM (Dulbecco's modified Eagle medium) supplemented with 10% FBS (BioSera), a 1% penicillin-streptomycin solution (FUJIFILM Wako Pure Chemical Corp.), 5 μM nicotinamide were inoculated at approximately 50,000 cells/well to a 96-well microplate, and the cells were cultured at 37°C under 5% CO2, transiently transfected on the next day with a pcDNA3 expression vector containing a DNA sequence (SEQ ID NO: 1) deficient in a mitochondrial targeting sequence encoded by an N-terminal 78-base sequence in cDNA encoding human sterile α- and armadillo-motif-containing protein (hSARM1) using PEI MAX(R) reagent (PolySciences Inc.), and forced to express ΔN-hSARM1 (SEQ ID NO: 2). Approximately 8 hours later, PC6, which reacts as a substrate of SARM1-specific base exchange reaction and functions as a fluorescent probe, was added thereto at a final concentration of 50 μM, and intracellular hSARM1 activity was measured (Li et al, eLife 2021 10: e67381). A compound for inhibitory activity evaluation was added at a final concentration of 30 μM at the same time with PC6, while dimethyl sulfoxide (Nacalai Tesque Inc.) was added to samples of a control group at the same time with PC6. The cells were incubated at 37°C under 5% CO2 for approximately 48 hours from transfection, followed by fluorescent signal measurement using SpectraMax M2 (Molecular Devices) (excitation: 405 nm, fluorescence: 525 nm, fluorescence cutoff: 515 nm). Results of this screening are reported as an inhibition rate (%) relative to a negative control defined as follows by using fluorescence intensity measured from a control group without transfection with ΔN-hSARM1 as a background whereas using fluorescence intensity measured from a control group transfected with ΔN-hSARM1 as the negative control. Inhibitory rate (%) = 100-(([…]-Background))/((Signalofthenegativecontrol-Background)) × 100 [formula] The nicotinamide-free medium was prepared so as to have the same composition as that of DMEM having known composition which is generally used in the art except for nicotinamide. […]

Each structure is given as a SMILES string.

T1 sequence (P43490 whole entry, species assumed): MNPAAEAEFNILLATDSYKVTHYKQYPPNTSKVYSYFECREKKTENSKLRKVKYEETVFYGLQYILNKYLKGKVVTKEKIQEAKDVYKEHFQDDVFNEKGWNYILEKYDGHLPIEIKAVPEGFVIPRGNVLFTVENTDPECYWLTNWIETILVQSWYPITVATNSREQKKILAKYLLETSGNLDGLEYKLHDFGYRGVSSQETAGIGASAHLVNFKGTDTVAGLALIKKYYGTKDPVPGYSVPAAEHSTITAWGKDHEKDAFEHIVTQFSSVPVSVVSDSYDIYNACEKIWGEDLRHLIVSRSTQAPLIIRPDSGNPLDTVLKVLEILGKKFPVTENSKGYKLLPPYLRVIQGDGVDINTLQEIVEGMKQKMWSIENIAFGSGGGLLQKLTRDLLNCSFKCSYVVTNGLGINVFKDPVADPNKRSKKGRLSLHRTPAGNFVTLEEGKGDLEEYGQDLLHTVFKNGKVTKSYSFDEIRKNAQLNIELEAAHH

As for `O=C(NCc1ccc(NC(=O)c2ccccc2)c(Cl)c1)c1cccnc1` [Compound 111], the “Evaluation on NAMPT inhibitory” value in test [1] is listed as “○”. The minimal effective concentration in test [2] was ≤ 0.01 µM. For the same compound, the inhibition at 30 µM on hSARM1 is > 10%.
Take `O=C(NCc1ccc(NC(=O)c2cccnc2)c(Cl)c1)c1cccnc1` [Compound 112]: in test [1], the “Evaluation on NAMPT inhibitory” value is given as “○”. The “Evaluation on protection against degeneration” value in test [2] is listed as “B (0.01 µM < B ≤ 0.1 µM)”. Besides, the inhibition at 30 µM on hSARM1 was > 10%.
For the compound `O=C(NCc1ccc(NC(=O)C2CCCCC2)nc1)c1cccnc1` [Compound 113], in test [1], the “Evaluation on NAMPT inhibitory” value is “○”. In addition, the minimal effective concentration in test [2] is ≤ 0.01 µM. In addition, the inhibition at 30 µM at hSARM1 was > 75%.
The matching figures for `O=C(NCc1ccc(NC(=O)C2CCOCC2)nc1)c1cccnc1` [Compound 114]: “○”, ≤ 0.01 µM and > 75%.
The matching figures for `O=C(CCc1ccccc1)Nc1ccc(CNC(=O)c2cccnc2)cn1` [Compound 115]: “○”, ≤ 0.01 µM and > 75%.
With `O=C(NCc1ccc(NC(=O)c2cccc(F)c2)nc1)c1cccnc1` [Compound 116], in test [1], the “Evaluation on NAMPT inhibitory” value was “○”. The minimal effective concentration in test [2] was ≤ 0.01 µM. In addition, the inhibition at 30 µM at hSARM1 is > 75%.
For the compound `O=C(NCc1ccc(NC(=O)c2ccc(F)cc2)nc1)c1cccnc1` [Compound 117], in test [1], the “Evaluation on NAMPT inhibitory” value is given as “○”. Besides, the minimal effective concentration in test [2] is ≤ 0.01 µM. Further, at hSARM1, the inhibition at 30 µM is > 75%.
The corresponding values for `O=C(NCc1ccc(NC(=O)c2ccc(Cl)cc2)nc1)c1cccnc1` [Compound 118] are “○”, ≤ 0.01 µM and > 75%.
Regarding `Cc1ccc(C(=O)Nc2ccc(CNC(=O)c3cccnc3)cn2)cc1` [Compound 119], the “Evaluation on NAMPT inhibitory” value in test [1] is reported as “○”. Besides, in test [2], the minimal effective concentration is ≤ 0.01 µM. Also, the inhibition at 30 µM on hSARM1 is > 75%.
The corresponding values for `O=C(NCc1ccc(NC(=O)c2cccnc2)nc1)c1cccnc1` [Compound 120] are “○”, ≤ 0.01 µM and > 25%.
Take `O=C(NCc1cccc(CNC(=O)c2cc(F)cc(F)c2)n1)c1cccnc1` [Compound 152]: the “Evaluation on NAMPT inhibitory” value in test [1] is reported as “○”. At hSARM1, the inhibition at 30 µM was > 25%.
As to `O=C(NCCN(CCNC(=O)c1cccnc1)C(=O)c1cccnc1)c1cccnc1` [compound 36], in test [1], the “Evaluation on NAMPT inhibitory” value is reported as “○”. Moreover, the inhibition at 30 µM at hSARM1 is > 10%.
In the case of `O=C(/C=C/c1cccnc1)NCc1ccccc1NC(=O)/C=C/c1cccnc1` [compound 60], in test [1], the “Evaluation on NAMPT inhibitory” value is recorded as “○”. Besides, the inhibition at 30 µM at hSARM1 is > 10%.
With `O=C(NCc1ccc(NS(=O)(=O)c2ccccc2)nc1)c1cccnc1` [compound 79], the “Evaluation on NAMPT inhibitory” value in test [1] is recorded as “○”. The inhibition at 30 µM at hSARM1 was > 10%.
As for `[N-]=[N+]=NCc1cccc(CNC(=O)c2cccnc2)n1` [compound 90], in test [1], the “Evaluation on NAMPT inhibitory” value was “○”. In addition, the inhibition at 30 µM on hSARM1 was > 10%.
Turning to `O=C(NCc1cccc(CN2Cc3ccccc3C2=O)n1)c1cccnc1` [compound 92], the “Evaluation on NAMPT inhibitory” value in test [1] is given as “○”. The inhibition at 30 µM at hSARM1 is > 10%.
On to `O=C(Nc1ccccc1CCc1ccccc1NC(=O)c1cccnc1)c1cccnc1` [compound 100], for which the “Evaluation on NAMPT inhibitory” value in test [1] is given as “○”. Also, the minimal effective concentration in test [2] lay in the range of 0.01 to 0.1 µM.
The matching figures for `CN(CCCCCCN(C)C(=O)c1cccnc1)C(=O)c1cccnc1` [compound 102]: “○” and ≤ 0.01 µM.
The matching figures for `NCCOCCOCCNC(=O)c1cccnc1` [compound 107]: “○” and ≤ 0.01 µM.
